The NIST ThermoML archive (doi:10.1021/je4000372)

Test: xn = mol fraction of the nth substance listed
Conditions: 101 kPa, Liquid; for viscosity: Capillary tube (Ostwald / Ubbelohde) method; for mass density: Pycnometric method

CCCCOCCOCCO [3,6-dioxa-1-decanol] + NCCO
Conditions | mass density, 293.15 K [kg/m3] | mass density, 303.15 K [kg/m3] | mass density, 313.15 K [kg/m3] | mass density, 323.15 K [kg/m3] | mass density, 333.15 K [kg/m3] | viscosity, 293.15 K [mPa·s] | viscosity, 303.15 K [mPa·s] | viscosity, 313.15 K [mPa·s] | viscosity, 323.15 K [mPa·s] | viscosity, 333.15 K [mPa·s]
x1 = 0.04025 | 1010.3 | 1002.5 | 994.3 | 986.2 | 978.2 | 23.11 | 14.27 | 9.52 | 6.64 | 4.82
x1 = 0.08607 | 1004.5 | 996.6 | 988.5 | 980.4 | 972.5 | 21.86 | 13.61 | 9.1 | 6.37 | 4.65
x1 = 0.1392 | 998.5 | 990.5 | 982.5 | 974.3 | 966.4 | 20.39 | 12.86 | 8.62 | 6.07 | 4.43
x1 = 0.2008 | 992.5 | 984.2 | 976.4 | 968.1 | 960.1 | 18.81 | 11.99 | 8.08 | 5.73 | 4.19
x1 = 0.2732 | 986.4 | 977.9 | 970.1 | 961.7 | 953.7 | 17.01 | 11.01 | 7.47 | 5.33 | 3.91
x1 = 0.3602 | 980.2 | 971.5 | 963.7 | 955.1 | 947.1 | 15.02 | 9.83 | 6.76 | 4.88 | 3.61
x1 = 0.4111 | 976.9 | 968.2 | 960.4 | 951.8 | 943.7 | 13.86 | 9.16 | 6.37 | 4.63 | 3.45
x1 = 0.4671 | 973.8 | 964.9 | 957.2 | 948.4 | 940.4 | 12.72 | 8.51 | 5.97 | 4.37 | 3.28
x1 = 0.4977 | 972.1 | 963.3 | 955.5 | 946.7 | 938.7 | 12.16 | 8.17 | 5.77 | 4.23 | 3.19
x1 = 0.6007 | 967.1 | 958.1 | 950.3 | 941.5 | 933.5 | 10.46 | 7.18 | 5.12 | 3.79 | 2.91
x1 = 0.7204 | 962 | 952.9 | 945.2 | 936.3 | 928.3 | 8.65 | 6.21 | 4.42 | 3.34 | 2.59
x1 = 0.7699 | 960.2 | 951.1 | 943.3 | 934.4 | 926.4 | 8.02 | 5.82 | 4.17 | 3.17 | 2.48
x1 = 0.8163 | 958.5 | 949.3 | 941.6 | 932.7 | 924.7 | 7.42 | 5.47 | 3.96 | 3.02 | 2.37
x1 = 0.9331 | 954.8 | 945.5 | 937.7 | 928.7 | 920.7 | 6.34 | 4.62 | 3.48 | 2.69 | 2.11
x1 = 1 | 952.9 | 943.5 | 935.7 | 926.6 | 918.5 | 5.84 | 4.23 | 3.22 | 2.51 | 2

CCCCOCCOCCO [3,6-dioxa-1-decanol] + OCCNCCO
Conditions | mass density, 293.15 K [kg/m3] | mass density, 303.15 K [kg/m3] | mass density, 313.15 K [kg/m3] | mass density, 323.15 K [kg/m3] | mass density, 333.15 K [kg/m3] | viscosity, 293.15 K [mPa·s] | viscosity, 303.15 K [mPa·s] | viscosity, 313.15 K [mPa·s] | viscosity, 323.15 K [mPa·s] | viscosity, 333.15 K [mPa·s]
x1 = 0.03299 | 1088.3 | 1081.8 | 1075.8 | 1069.4 | 1062.8 | 681.3 | 290.7 | 156.2 | 80.04 | 46.73
x1 = 0.06718 | 1080.7 | 1074.2 | 1068 | 1061.5 | 1054.9 | 550.2 | 231.6 | 122.5 | 66.29 | 38.49
x1 = 0.1026 | 1073.2 | 1066.5 | 1060.3 | 1053.6 | 1046.9 | 425.1 | 189.9 | 98.2 | 53.87 | 31.99
x1 = 0.1394 | 1065.8 | 1058.9 | 1052.5 | 1045.7 | 1038.8 | 321.3 | 150.1 | 81.15 | 43.18 | 26.71
x1 = 0.2174 | 1050.9 | 1043.7 | 1037.1 | 1029.9 | 1022.8 | 191.6 | 96.21 | 53.26 | 30.37 | 19.13
x1 = 0.3018 | 1036.3 | 1028.7 | 1021.9 | 1014.5 | 1007.3 | 114.4 | 59.95 | 34.51 | 20.74 | 13.22
x1 = 0.3933 | 1021.9 | 1014 | 1007 | 999.2 | 991.8 | 65.16 | 37.05 | 22.29 | 14.26 | 9.429
x1 = 0.4929 | 1007.7 | 999.5 | 992.3 | 984.2 | 976.7 | 38.57 | 22.76 | 14.83 | 9.416 | 6.995
x1 = 0.6019 | 993.8 | 985.2 | 977.9 | 969.6 | 961.9 | 23.75 | 14.92 | 10.02 | 7.041 | 5.178
x1 = 0.7008 | 982.3 | 973.5 | 966.1 | 957.6 | 949.8 | 15.75 | 10.43 | 7.262 | 5.199 | 3.927
x1 = 0.7558 | 976.4 | 967.5 | 960 | 951.4 | 943.5 | 12.19 | 8.762 | 6.011 | 4.251 | 3.358
x1 = 0.8059 | 971.2 | 962.2 | 954.7 | 946 | 938.1 | 10.43 | 7.305 | 5.293 | 3.759 | 3.035
x1 = 0.8537 | 966.4 | 957.3 | 949.7 | 940.9 | 933 | 8.982 | 6.312 | 4.629 | 3.407 | 2.756
x1 = 0.9031 | 961.6 | 952.4 | 944.8 | 935.9 | 927.9 | 7.858 | 5.501 | 4.032 | 3.028 | 2.463
x1 = 1 | 952.9 | 943.5 | 935.7 | 926.6 | 918.5 | 5.84 | 4.23 | 3.22 | 2.51 | 2

OCCN(CCO)CCO [triethanolamine] + CCCCOCCOCCO
Conditions | mass density, 293.15 K [kg/m3] | mass density, 303.15 K [kg/m3] | mass density, 313.15 K [kg/m3] | mass density, 323.15 K [kg/m3] | mass density, 333.15 K [kg/m3] | viscosity, 293.15 K [mPa·s] | viscosity, 303.15 K [mPa·s] | viscosity, 313.15 K [mPa·s] | viscosity, 323.15 K [mPa·s] | viscosity, 333.15 K [mPa·s]
x2 = 0 | 1124.3 | 1118.5 | 1112.8 | 1107.1 | 1101.5 | 917.6 | 404.7 | 203.9 | 108.3 | 64.2
x2 = 0.09279 | 1105.1 | 1098.9 | 1093.1 | 1087.2 | 1081.4 | 491.9 | 228.3 | 112.58 | 69.65 | 43.5
x2 = 0.1871 | 1086.3 | 1079.9 | 1073.9 | 1067.5 | 1061.6 | 269.8 | 126.6 | 67.74 | 44.43 | 28.3
x2 = 0.2841 | 1067.9 | 1061 | 1054.8 | 1048.1 | 1041.8 | 153.2 | 69.69 | 40.77 | 28.48 | 18.4
x2 = 0.3804 | 1050.4 | 1043.1 | 1036.7 | 1029.5 | 1022.9 | 85.31 | 41.88 | 25.92 | 17.59 | 12.6
x2 = 0.4787 | 1033.3 | 1025.6 | 1018.9 | 1011.4 | 1004.5 | 50.08 | 26.39 | 16.38 | – | 8.97
x2 = 0.5789 | 1016.5 | 1008.5 | 1001.6 | 993.7 | 986.6 | 30.52 | 17.51 | 10.81 | 8.79 | 6.52
x2 = 0.6816 | 999.9 | 991.7 | 984.6 | 976.4 | 969 | 18.81 | 10.74 | 7.41 | 5.83 | 4.71
x2 = 0.7855 | 983.9 | 975.2 | 967.9 | 959.5 | 951.9 | 12.36 | 8.16 | – | 4.35 | 3.54
x2 = 0.8923 | 968.1 | 959.1 | 951.5 | 942.7 | 934.9 | 8.49 | 6.01 | – | 3.39 | 2.67
